Data on 14 molecules can be found in patent publication US20240368156A1, “2-AZABICYCLO[2.2.1]HEPTANE KRAS INHIBITORS” (INCYTE CORPORATION, priority 2023, published 2024).

The target of one test is KRAS G12D (Homo sapiens, UniProt P01116, G12D). Nature of the test: GDP-GTP exchange assay (bodipy-GDP/GppNHp, SOS1), KRAS G12D. The test is classed as biochemical. The conditions noted are these: 2.5 nM bodipy-loaded KRAS G12D, 4 h pre-incubation, 2 h reaction with GppNHp and SOS1; for certain compounds the most potent isomer is quoted; read-out: KRAS_G12D exchange assay IC50. Here is the method:
(§1) The inhibitor potency of the exemplified compounds was determined in a fluorescence based guanine nucleotide exchange assay, which measures the exchange of bodipy-GDP (fluorescently labeled GDP) for GppNHp (Non-hydrolyzable GTP analog) to generate the active state of KRAS in the presence of SOS1 (guanine nucleotide exchange factor). Inhibitors were serially diluted in DMSO and a volume of 0.1 μL was transferred to the wells of a black low volume 384-well plate. 5 µL/well volume of bodipy-loaded KRAS G12D diluted to 2.5 nM in assay buffer (25 mM Hepes pH 7.5, 50 mM NaCl, 10 mM MgCl2 and 0.01% Brij-35) was added to the plate and pre-incubated with inhibitor for 4 h at r.t. Appropriate controls (enzyme with no inhibitor or with a G12D inhibitor) were included on the plate. The exchange was initiated by the addition of a 5 μL/well volume containing 1 mM GppNHp and 300 nM SOS1 in assay buffer. The 10 μL/well reaction concentration of the bodipy-loaded KRAS G12D, GppNHp, and SOS1 were 2.5 nM, 500 μM, and 150 nM, respectively. The reaction plates were incubated at r.t. for 2 h, a time estimated for complete GDP-GTP exchange in the absence of inhibitor. For the KRAS G12V mutant, similar guanine nucleotide exchange assays were used with 2.5 nM as final concentration for the bodipy loaded KRAS proteins and 3 h incubation after adding GppNHp-SOS1 mixture. A cyclic peptide described to selectively bind G12D mutant (Sakamoto et al., BBRC 484.3 (2017), 605-611) or internal compounds with confirmed binding were used as positive controls in the assay plates. Fluorescence intensities were measured on a PheraStar plate reader instrument (BMG Labtech) with excitation at 485 nm and emission at 520 nm.
(§2) Either GraphPad prism or Genedata Screener SmartFit was used to analyze the data. The IC50 values were derived by fitting the data to a four parameter logistic equation producing a sigmoidal dose-response curve with a variable Hill coefficient.
(§3) The symbol “†” indicates IC50≤100 nM, “††” indicates IC50>100 nM but ≤1 μM; and “†††” indicates IC50 is >1 μM but ≤5 μM, “††††” indicates IC50 is >5 µM but ≤10 μM. “NA” indicates IC50 not available.

Another test deals with KRAS G12V (Homo sapiens, UniProt P01116, G12V). Briefly: GDP-GTP exchange assay (bodipy-GDP/GppNHp, SOS1), KRAS G12V. It counts as biochemical. The conditions noted are these: 2.5 nM bodipy-loaded KRAS G12V, 3 h incubation after adding GppNHp-SOS1; for certain compounds the most potent isomer is quoted; read-out: KRAS_G12V exchange assay IC50. Here is the method:
as §1, §2, §3

Chain of KRAS G12D (P01116 1-188 isoform P01116-2 G12D): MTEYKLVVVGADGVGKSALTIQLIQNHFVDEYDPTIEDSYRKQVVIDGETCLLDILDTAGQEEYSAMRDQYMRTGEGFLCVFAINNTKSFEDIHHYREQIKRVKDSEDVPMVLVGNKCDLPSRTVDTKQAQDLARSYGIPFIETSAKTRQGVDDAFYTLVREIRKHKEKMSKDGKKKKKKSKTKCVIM
Chain of KRAS G12V (P01116 1-188 isoform P01116-2 G12V): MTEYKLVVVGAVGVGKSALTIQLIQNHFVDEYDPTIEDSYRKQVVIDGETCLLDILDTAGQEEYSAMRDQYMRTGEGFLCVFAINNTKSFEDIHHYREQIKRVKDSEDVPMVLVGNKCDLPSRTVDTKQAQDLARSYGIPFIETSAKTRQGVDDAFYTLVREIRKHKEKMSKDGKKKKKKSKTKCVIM

Broadly, the IC50 is the concentration at which inhibition is half-maximal. Consider `Cc1nc2c(F)c(-c3cccc(Cl)c3Cl)c(CCC#N)cc2c2c1cc([C@H]1[C@H]3C[C@H](C[C@@H]3OC(F)F)N1C(=O)C1(F)CC1)n2[C@H]1[C@H]2CN[C@@H]1C2` (atropisomer, axis not shown; (Ra)) [Example 10, 3-((Ra)-1-((1R,4R,5S)-2-Azabicyclo[2.1.1]hexan-5-yl)-7-(2,3-dichlorophenyl)-2-((1R,3R,4R,5S)-5-(difluoromethoxy)-2-(1-fluorocyclopropane-1-carbonyl)-2-azabicyclo[2.2.1]heptan-3-yl)-6-fluoro-4-methyl-1H-pyrrolo[3,2-c]quinolin-8-yl)propanenitrile], for which the IC50 at KRAS G12D and at KRAS G12V was at most 100 nM in each case.
As for `COC(=O)N1[C@@H]2C[C@@H]([C@@H](OC(F)F)C2)[C@@H]1c1cc2c(C)nc3c(F)c(-c4cccc(Cl)c4Cl)c(CCC#N)cc3c2n1[C@H]1[C@H]2CN[C@@H]1C2` (atropisomer, axis not shown; (Ra)) [Example 39, Methyl (1R,3R,4R,5S)-3-((Ra)-1-((1R,4R,5S)-2-azabicyclo[2.1.1]hexan-5-yl)-8-(2-cyanoethyl)-7-(2,3-dichlorophenyl)-6-fluoro-4-methyl-1H-pyrrolo[3,2-c]quinolin-2-yl)-5-(difluoromethoxy)-2-azabicyclo[2.2.1]heptane-2-carboxylate], the half-inhibitory concentration (IC50) at KRAS G12D and at KRAS G12V was at most 100 nM in each case.
`COC(=O)N1[C@@H]2C[C@@H]([C@@H](OC(F)(F)F)C2)[C@@H]1c1cc2c(C)nc3c(F)c(-c4cccc(Cl)c4Cl)c(CCC#N)cc3c2n1[C@H]1[C@H]2CN[C@@H]1C2` (atropisomer, axis not shown; (Ra)) [Example 40, Methyl (1R,3R,4R,5S)-3-((Ra)-1-((1R,4R,5S)-2-azabicyclo[2.1.1]hexan-5-yl)-8-(2-cyanoethyl)-7-(2,3-dichlorophenyl)-6-fluoro-4-methyl-1H-pyrrolo[3,2-c]quinolin-2-yl)-5-(trifluoromethoxy)-2-azabicyclo[2.2.1]heptane-2-carboxylate]: the IC50 at KRAS G12D and at KRAS G12V was at most 100 nM each time.
As to `Cc1nc2c(F)c(-c3cccc(Cl)c3Cl)c(CCC#N)cc2c2c1cc([C@H]1[C@H]3C[C@H](C[C@@H]3OC(F)(F)F)N1C(=O)C1CC1)n2[C@H]1[C@H]2CN[C@@H]1C2` (atropisomer, axis not shown; (Ra)) [Example 41, 3-((Ra)-1-((1R,4R,5S)-2-Azabicyclo[2.1.1]hexan-5-yl)-2-((1R,3R,4R,5S)-2-(cyclopropanecarbonyl)-5-(trifluoromethoxy)-2-azabicyclo[2.2.1]heptan-3-yl)-7-(2,3-dichlorophenyl)-6-fluoro-4-methyl-1H-pyrrolo[3,2-c]quinolin-8-yl)propanenitrile], the 50% inhibitory concentration (IC50) on KRAS G12D and at KRAS G12V was at most 100 nM each time.
For the molecule `Cc1nc2c(F)c(-c3cccc(Cl)c3Cl)c(CCC#N)cc2c2c1cc([C@H]1[C@H]3C[C@H](C[C@@H]3OC(F)(F)F)N1C(=O)C1(F)CC1)n2[C@H]1[C@H]2CN[C@@H]1C2` (atropisomer, axis not shown; (Ra)) [Example 42, 3-((Ra)-1-((1R,4R,5S)-2-azabicyclo[2.1.1]hexan-5-yl)-7-(2,3-dichlorophenyl)-6-fluoro-2-((1R,3R,4R,5S)-2-(1-fluorocyclopropane-1-carbonyl)-5-(trifluoromethoxy)-2-azabicyclo[2.2.1]heptan-3-yl)-4-methyl-1H-pyrrolo[3,2-c]quinolin-8-yl)propanenitrile], the half-inhibitory concentration (IC50) on KRAS G12D and at KRAS G12V was at most 100 nM each time.
Consider `COC(=O)N1[C@@H]2C[C@@H]([C@@H](C(F)F)C2)[C@@H]1c1cc2c(C)nc3c(F)c(-c4cccc(Cl)c4Cl)c(CCC#N)cc3c2n1[C@H]1[C@H]2CN[C@@H]1C2` (atropisomer, axis not shown; (Ra)) [Example 43, Methyl (1R,3R,4S,5S)-3-((Ra)-1-((1R,4R,5S)-2-azabicyclo[2.1.1]hexan-5-yl)-8-(2-cyanoethyl)-7-(2,3-dichlorophenyl)-6-fluoro-4-methyl-1H-pyrrolo[3,2-c]quinolin-2-yl)-5-(difluoromethyl)-2-azabicyclo[2.2.1]heptane-2-carboxylate], for which the IC50 on KRAS G12D and at KRAS G12V was at most 100 nM throughout.
Turning to `Cc1nc2c(F)c(-c3cccc(Cl)c3Cl)c(CCC#N)cc2c2c1cc([C@H]1[C@H]3C[C@H](C[C@@H]3C(F)F)N1C(=O)C1(F)CC1)n2[C@H]1[C@H]2CN[C@@H]1C2` (atropisomer, axis not shown; (Ra)) [Example 44, 3-((Ra)-1-((1R,4R,5S)-2-Azabicyclo[2.1.1]hexan-5-yl)-7-(2,3-dichlorophenyl)-2-((1R,3R,4S,5S)-5-(difluoromethyl)-2-(1-fluorocyclopropane-1-carbonyl)-2-azabicyclo[2.2.1]heptan-3-yl)-6-fluoro-4-methyl-1H-pyrrolo[3,2-c]quinolin-8-yl)propanenitrile], the IC50 on KRAS G12D and at KRAS G12V was at most 100 nM throughout.
With `C[C@@H](O)c1nc2c(F)c(-c3cccc(Cl)c3Cl)c(CCC#N)cc2c2c1cc([C@H]1[C@H]3C[C@H](C[C@@H]3F)N1C(=O)C1(F)CC1)n2[C@H]1[C@H]2CN[C@@H]1C2` (single isomer, unassigned) [Example 8], the half-inhibitory concentration (IC50) on KRAS G12D and at KRAS G12V was at most 100 nM in each case.
With `C[C@@H](O)c1nc2c(F)c(-c3cccc(Cl)c3Cl)c(CCC#N)cc2c2c1cc([C@H]1[C@H]3C[C@H](C[C@@H]3OC(F)F)N1C(=O)C1(F)CC1)n2[C@H]1[C@H]2CN[C@@H]1C2` (single isomer, unassigned) [Example 37], the IC50 at KRAS G12D and at KRAS G12V was at most 100 nM each time.
With `C[C@@H](O)c1nc2c(F)c(-c3cccc(Cl)c3Cl)c(CCC#N)cc2c2c1cc([C@H]1[C@H]3C[C@H](C[C@@H]3OC3CC3)N1C(=O)C1(F)CC1)n2[C@H]1[C@H]2CN[C@@H]1C2` (single isomer, unassigned) [Example 38], the half-maximal inhibitory concentration (IC50) on KRAS G12D and on KRAS G12V was at most 100 nM each time.
For `Cc1nc2c(F)c(-c3cccc(Cl)c3Cl)c(CCC#N)cc2c2c1cc([C@H]1[C@@H]3CC[C@@H](C3)N1C(=O)C1CC1)n2[C@H]1[C@H]2CN[C@@H]1C2` [Example 11, 3-(1-((1R,4R,5S)-2-azabicyclo[2.1.1]hexan-5-yl)-2-((1S,3R,4R)-2-(cyclopropanecarbonyl)-2-azabicyclo[2.2.1]heptan-3-yl)-7-(2,3-dichlorophenyl)-6-fluoro-4-methyl-1H-pyrrolo[3,2-c]quinolin-8-yl)propanenitrile], the half-maximal inhibitory concentration (IC50) on KRAS G12D and on KRAS G12V was at most 100 nM each time.
Take `CN(C)C(=O)c1ccc(-c2nc3c(F)c(-c4cccc(Cl)c4Cl)c(CCC#N)cc3c3c2cc([C@H]2[C@@H]4CC[C@@H](C4)N2C(=O)C2CC2)n3[C@H]2[C@H]3CN[C@@H]2C3)cn1` [Example 12, 5-(1-((1R,4R,5S)-2-azabicyclo[2.1.1]hexan-5-yl)-8-(2-cyanoethyl)-2-((1S,3R,4R)-2-(cyclopropanecarbonyl)-2-azabicyclo[2.2.1]heptan-3-yl)-7-(2,3-dichlorophenyl)-6-fluoro-1H-pyrrolo[3,2-c]quinolin-4-yl)-N,N-dimethylpicolinamide]: the IC50 on KRAS G12D and on KRAS G12V was at most 100 nM in each case.
Take `CC(C)(O)c1ccc(-c2nc3c(F)c(-c4cccc(Cl)c4Cl)c(CCC#N)cc3c3c2cc([C@H]2[C@@H]4CC[C@@H](C4)N2C(=O)C2CC2)n3[C@H]2[C@H]3CN[C@@H]2C3)cn1` [Example 13, 3-(1-((1R,4R,5S)-2-azabicyclo[2.1.1]hexan-5-yl)-2-((1S,3R,4R)-2-(cyclopropanecarbonyl)-2-azabicyclo[2.2.1]heptan-3-yl)-7-(2,3-dichlorophenyl)-6-fluoro-4-(6-(2-hydroxypropan-2-yl)pyridin-3-yl)-1H-pyrrolo[3,2-c]quinolin-8-yl)propanenitrile]: the IC50 on KRAS G12D and on KRAS G12V was at most 100 nM each time.
For the molecule `CNC(=O)c1ccc(-c2nc3c(F)c(-c4cccc(Cl)c4Cl)c(CCC#N)cc3c3c2cc([C@H]2[C@@H]4CC[C@@H](C4)N2C(=O)C2CC2)n3[C@H]2[C@H]3CN[C@@H]2C3)cc1F` [Example 14, 4-(1-((1R,4R,5S)-2-azabicyclo[2.1.1]hexan-5-yl)-8-(2-cyanoethyl)-2-((1S,3R,4R)-2-(cyclopropanecarbonyl)-2-azabicyclo[2.2.1]heptan-3-yl)-7-(2,3-dichlorophenyl)-6-fluoro-1H-pyrrolo[3,2-c]quinolin-4-yl)-2-fluoro-N-methylbenzamide], the IC50 at KRAS G12D and on KRAS G12V was at most 100 nM in each case.
